Assay results as given in patent US10775394B2, “Immunoassay for phenethylamines of the 2C and DO sub-families” (Randox Laboratories Limited, priority 2013, dated 2020).
Structures can show the parent of a compound that is named as a salt.

Legend:
Randox MDPV kit = conditions: compared to 100% for (±)-MDPV, Swortwood et al 2013, Table 7; cited from earlier work
[1] = system: Randox mephedrone/methcathinone kit; conditions: compared to 100% for (±)-mephedrone, Swortwood et al 2013, Table 7; cited from earlier work
[2] = system: 2C antibody (IgG fraction of antiserum raised to 2C-B-BSA); assay: Competitive microtitre plate ELISA, 2C antibody (antiserum raised to 2C-B-BSA); assay type: binding; conditions: for % Cross-Reactivity / IC50 (standard concentration which produces 50% inhibition of maximal signal): 2C antibody; for % Cross-Reactivity: relative to 2C-B = 100%, calibration curves 0-80 ng/ml; for IC50 (standard concentration which produces 50% inhibition of maximal signal): 2C-B standard, competitive ELISA
Procedure: The wells of an enhanced binding 96 well polystyrene microtitre plate were coated with IgG fraction of antiserum raised to 2C-B-BSA, diluted in 10 mM Tris, pH8.5 (125 μl/well). The appropriate antibody coating dilution was determined using standard ELISA checkerboard techniques. The plate was incubated overnight at 4° C., washed 4 times over 10 minutes with Tris buffered saline containing Tween 20 (TBST) and tapped dry. Standard solutions of 2CB were prepared in TBST at 0, 1.25, 2.5, 5, 10, 20, 40 & 80 ng/ml, and 50 μl of each was added to the appropriate wells. 75 μl of conjugate (Example 11) diluted in Tris buffer (pH 7.2) containing EDTA, D-mannitol, sucrose, thimerosal and BSA, was added to each of the wells. The appropriate dilution of conjugate was also determined using standard ELISA checkerboard techniques. The plate was incubated at 25° C. for 1 hour. Excess unbound conjugate was removed by washing 6 times over a 10-15 minute period with TBST and tapped dry. 125 μl of tetramethylbenzidine (TMB) substrate solution was added to each well of the plate that was then incubated for 20 minutes in the dark at room temperature. The reaction was terminated by addition of 125 μl 0.2 M H2SO4 to each well. The absorbance was measured at 450 nm using a microtitre plate reader. In order to determine the specificity of the competitive ELISAs, standard solutions of a range of structurally similar compounds were prepared in TBST. Using calibration curves generated from these compounds (0-80 ng/ml) percentage cross-reactivity was determined.

[3] = system: EMIT II Plus amphetamines assay; conditions: tested at 5,000 ng/ml, Petrie et al 2013; cited from earlier work
[4] = system: DO antibody 2 (IgG fraction of antiserum raised to DOB-BSA); assay: Competitive microtitre plate ELISA, DO antibody 2 (antiserum raised to DOB-BSA); assay type: binding; conditions: for % Cross reactivity: DO antibody 2, relative to DOB = 100
Procedure: The wells of an enhanced binding 96 well polystyrene microtitre plate were coated with IgG fraction of antiserum raised to DOB-BSA, diluted in 10 mM Tris, pH8.5 (125 μl/well). The appropriate antibody coating dilution was determined using standard ELISA checkerboard techniques. The plate was incubated for 2 hours at 37° C., washed 4 times over 10 minutes with Tris buffered saline containing Tween 20 (TBST) and tapped dry. Standard solutions of DOB were prepared in TBST at 0, 0.625, 1.25, 2.5, 5, 10, 20 & 40 ng/ml, and 50 μl of each was added to the appropriate wells. 75 μl of conjugate (Example 22) diluted in Tris buffer (pH 7.2) containing EDTA, D-mannitol, sucrose, thimerosal and BSA, was added to each of the wells. The appropriate dilution of conjugate was also determined using standard ELISA checkerboard techniques. The plate was incubated at 25° C. for 1 hour. Excess unbound conjugate was removed by washing 6 times over a 10-15 minute period with TBST and tapped dry. 125 μl of tetramethylbenzidine (TMB) substrate solution was added to each well of the plate that was then incubated for 20 minutes in the dark at room temperature. The reaction was terminated by addition of 125 μl 0.2 M H2SO4 to each well. The absorbance was measured at 450 nm using a microtitre plate reader. In order to determine the specificity of the competitive ELISAs, standard solutions of a range of structurally similar compounds were prepared in TBST. Using calibration curves generated from these compounds (0-40 ng/ml), the cross-reactivity was determined.

[5] = system: DO antibody 1 (IgG fraction of antiserum raised to DOB-BSA); assay: Competitive microtitre plate ELISA, DO antibody 1 (antiserum raised to DOB-BSA); assay type: binding; conditions: for % Cross-Reactivity: DO antibody 1, relative to DOB = 100%, calibration curves 0-40 ng/ml
Procedure: The appropriate antibody coating dilution was determined using standard ELISA checkerboard techniques. The plate was incubated for 2 hours at 37° C., washed 4 times over 10 minutes with Tris buffered saline containing Tween 20 (TBST) and tapped dry. […] The appropriate dilution of conjugate was also determined using standard ELISA checkerboard techniques. The plate was incubated at 25° C. for 1 hour. Excess unbound conjugate was removed by washing 6 times over a 10-15 minute period with TBST and tapped dry. 125 μl of tetramethylbenzidine (TMB) substrate solution was added to each well of the plate that was then incubated for 20 minutes in the dark at room temperature. The reaction was terminated by addition of 125 μl 0.2 M H2SO4 to each well. The absorbance was measured at 450 nm using a microtitre plate reader.

[6] = system: CEDIA amphetamine/ecstasy immunoassay; conditions: CEDIA assay; tested at 5,000 ng/ml; Petrie et al 2013; cited from earlier work
[7] = system: AxSYM amphetamine/methamphetamine II assay; conditions: even when tested at 5,000 ng/mL, Petrie et al 2013; cited from earlier work

Row | SMILES | % Cross-Reactivity [2] | cross-reactivity [3] | % Cross reactivity [4] | % Cross-Reactivity [5] | cross-reactivity [6] | cross-reactivity [7] | other results
1 | CCCC(C(=O)c1ccc2c(c1)OCO2)N1CCCC1 (racemic) [(±)-MDPV] | – | – | – | – | – | – | cross-reactivity (Randox MDPV kit): 100%
2 | CNC(C)C(=O)c1ccc(C)cc1 (racemic) [(±)-mephedrone, mephedrone] | – | – | – | – | – | – | cross-reactivity [1]: 100%
3 | COc1cc(CC(C)N)c(OC)cc1Br (racemic) [DOB, 1-(4-bromo-2,5-dimethoxyphenyl)propan-2-amine] | <1.0% | 39.1% | 100% | 100.0% | 8.5% | does not show cross-reactivity | IC50 ([4]; DO antibody 2, competitive ELISA): IC50 - 0.437 ng/mL; % B/Bo ([5]; DOB 0.625 ng/ml): 64.5%; % B/Bo ([5]; DOB 1.25 ng/ml): 58.1%; % B/Bo ([5]; DOB 2.5 ng/ml): 46.3%; % B/Bo ([5]; DOB 5 ng/ml): 34.6%; % B/Bo ([5]; DOB 10 ng/ml): 27.5%; % B/Bo ([5]; DOB 20 ng/ml): 17.5%; % B/Bo ([5]; DOB 40 ng/ml): 11.5%
4 | COc1cc(CC(C)N)c(OC)cc1C (racemic) [DOM, 1-(2,5-dimethoxy-4-methylphenyl)propan-2-amine] | – | 23.2% | 49% | 112.7% | 3.9% | does not show cross-reactivity | –
5 | NCCc1ccccc1 [(+)-Phenethylamine] | <1.0% | – | – | <1.0% | – | – | binding of the antibody described in Table 4 ([2]; summary in words): not; binding of the antibody described in Table 2 ([5]; summary in words): not
6 | CC(N)Cc1ccccc1 (centres unmarked) [Amphetamine] | – | – | – | <1.0% | – | – | –
7 | CC(N)Cc1c2ccoc2c(Br)c2ccoc12 (centres unmarked) [Bromo DragonFly (HCl), 1-(4-Bromofuro[2,3-f][1]benzofuran-8-yl)propan-2-amine] | – | – | 96% | – | – | – | –
8 | COc1cc(CC(C)N)c(OC)cc1Cl (centres unmarked) [DOC, 4-chloro-2,5dimethoxyamphetamine] | – | – | 47% | – | – | – | –
9 | CCc1cc(OC)c(CC(C)N)cc1OC (centres unmarked) [DOET] | – | 18.8% | 50% | – | 4.8% | does not show cross-reactivity | –
10 | COc1cc(CC(C)N)c(OC)cc1I.Cl (centres unmarked) [DOI HCl] | – | – | 73% | – | – | – | –
11 | COc1cc([N+](=O)[O-])c(OC)cc1CC(C)N (centres unmarked) [DON, 1-(2,5-dimethoxy-4-nitrophenyl)propan-2-amine] | – | – | 57% | 43.1% | – | – | –
12 | COc1cc(CCN)c(OC)cc1Br [Hapten 2C-B, 1-(4-bromo-2,5-dimethoxyphenyl)ethan-2-amine] | 100.0% | 36.0% | – | <1.0% | 3.0% | does not show cross-reactivity | % B/Bo ([2]; 2C-B 1.25 ng/ml): 86.8%; % B/Bo ([2]; 2C-B 2.5 ng/ml): 79.2%; % B/Bo ([2]; 2C-B 5 ng/ml): 69.2%; % B/Bo ([2]; 2C-B 10 ng/ml): 59.5%; % B/Bo ([2]; 2C-B 20 ng/ml): 53.5%; % B/Bo ([2]; 2C-B 40 ng/ml): 44.6%; % B/Bo ([2]; 2C-B 80 ng/ml): 38.1%; IC50 (standard concentration which produces 50% inhibition of maximal signal) [2]: 0.024618 µg/mL; IC50 (standard concentration which produces 50% inhibition of maximal signal) ([2]; listed as 2CB): is 24.6 ng/ml).
13 | COc1cc(CCN)c(OC)cc1Cl [Hapten 2C-C, 1-(4-chloro-2,5-dimethoxyphenyl)ethan-2-amine] | 148.6% | – | – | <1.0% | – | – | –
14 | COc1cc(CCN)c(OC)cc1C#N [Hapten 2C-CN, 1-(4-cyano-2,5-dimethoxyphenyl)ethan-2-amine] | 66.8% | – | – | <1.0% | – | – | –
15 | COc1cc(CCN)c(OC)cc1C [Hapten 2C-D, 1-(2,5-dimethoxy4-methylphenyl)ethan-2-amine] | 308.3% | – | – | <1.0% | – | – | –
16 | CCc1cc(OC)c(CCN)cc1OC [Hapten 2C-E, 1-(2,5-dimethoxy-4-ethylphenyl)ethan-2-amine] | 178.8% | – | – | <1.0% | – | – | –
17 | COc1ccc(OC)c(CCN)c1 [Hapten 2C-H] | – | none | – | – | 3.1% | does not show cross-reactivity | –
18 | COc1cc(CCN)c(OC)cc1I [Hapten 2C-I, 1-(2,5-dimethoxy-4-iodophenyl)ethan-2-amine] | – | 28.6% | – | – | none | does not show cross-reactivity | –
19 | CCCc1cc(OC)c(CCN)cc1OC [Hapten 2C-P, 1-(2,5-dimethoxy-4-propylphenyl)ethan-2-amine] | 276.8% | – | – | <1.0% | – | – | –
20 | COc1cc(SC(C)C)c(OC)cc1CCN [Hapten 2C-T-4] | – | none | – | – | 2.2% | does not show cross-reactivity | –
21 | CN[C@@H](C)Cc1ccccc1 [Methamphetamine] | – | – | – | <1.0% | – | – | –
22 | COc1cc(OC)c(OC)cc1CC(C)N (centres unmarked) [TMA, 2,4,5-trimethoxyamphetamine] | – | – | 5% | 9.8% | – | – | –
